The text below walks through data of patent publication US8541442B2, “Indole derivatives as anticancer agents” (Janssen Pharmaceutica N.V., priority 2009, dated 2013).

In one series the test system is p53 in A2780 cells. The series is described as follows: p53 ELISA (preservation of p53 in A2780 cells). Format: cell-based, human. The conditions noted are these: 16 hours treatment; for minimal effective concentration: Homo sapiens, A2780, 16 h, read-out: p53-elisa LAD (lowest dose giving at least 140% of the value for p53 present in the control). The procedure: The capacity of the present compounds to preserve p53 in A2780 cells was measured with the p53 enzyme linked immunosorbent assay. The p53 assay is a “sandwich” enzyme immunoassay employing two polyclonal antibodies. A polyclonal antibody, specific for the p53 protein, has been immobilized onto the surface of the plastic wells. Any p53 present in the sample to be assayed will bind to the capture antibody. The biotinylated detector polyclonal antibody also recognizes p53 protein, and will bind to any p53, which has been retained by the capture antibody. The detector antibody, in turn, is bond by horseradish peroxidase-conjugated streptavidin. The horseradish peroxidase catalyses the conversion of the chromogenic substrate o-phenylene diamine, the intensity of which is proportional to the amount of p53 protein bond to the plate. The colored reaction product is quantified using a spectrophotometer. Quantitation is achieved by the construction of a standard curve using known concentrations of purified recombinant HIS tagged p53 protein (see example C.1.).
A2780 cells (ATCC) were cultivated in RPMI 1640 supplemented with 10% fetal calf serum (FCS), 2 mM L-glutamine and gentamycin at 37° C. in a humidified incubator with 5% CO2.
A2780 cells were seeded at 20.000 cells per well in a 96 well plate, cultured for 24 hours and treated with compound for 16 hours at 37° C. in a humidified incubator. After incubation, the cells were washed once with phosphate-buffered saline and 30 μl, per well, low salt RIPA buffer (20 mM tris, pH7.0, 0.5 mM EDTA, 1% Nonidet P40, 0.5% DOC, 0.05% SDS, 1 mM PMSF, 1 μg/ml aprotinin and 0.5 μ/ml leupeptin) was added. Plates were placed on ice for 30 minutes to complete the lysis. p53 protein was detected in de lysates by using the sandwich ELISA, described below.
High binding polystyrene EIA/RIA 96 well plates (Costar 9018) were coated with the capture antibody pAb1801 (Abcam ab28-100) at a concentration of 1 μg/ml in coating buffer (0.1 M NaHCO3 pH8.2), 50 μl per well. The antibody was allowed to adhere overnight at 4° C. Coated plates were washed once with phosphate-buffered saline (PBS)/0.05% Tween 20 and 300 μl of blocking buffer (PBS, 1% bovine serum albumins (BSA)) was added, for an incubation period of 2 hours at room temperature. Dilutions of purified recombinant HIS tagged p53 protein, ranging from 3-200 ng/ml, were made in blocking buffer and used as standards.
Plates were washed twice with PBS/0.05% Tween 20 and blocking buffer or standards were added at 80 μl/well. To the standards, 20 μl of lysis buffer was added. The samples were added to the other wells at 20 μl lysate/well. After an overnight incubation at 4° C., plates were washed twice with PBS/0.05% Tween 20. Aliquots of 100 μl secondary polyclonal antibody p53(FL-393) (Tebubio, sc-6243) at a concentration of 1 μg/ml in blocking buffer were added to each well and allowed to adhere for 2 hours at room temperature. Plates were washed three times with PBS/0.05% Tween 20. Detection antibody anti-rabbit HRP (sc-2004, Tebubio) at 0.04 μg/ml in PBS/1% BSA was added and incubated for 1 hour at room temperature. Plates were washed three times with PBS/0.05% Tween 20 and 100 μl of substrate buffer was added (substrate buffer was prepared shortly before use by adding 1 tablet of 10 mg o-phenylene diamine (OPD) from Sigma and 125 μl 3% H2O2 to 25 ml OPD buffer: 35 mM citric acid, 66 mM Na2HPO4, pH5.6). After 5 to 10 minutes, colour reaction was stopped by adding 50 μl stop buffer (1 M H2SO4) per well. The absorbance at dual wavelengths of 490/655 nm was measured using a Biorad micro plate reader and the results were then analyzed.
For each experiment, controls (containing no drug) and a blank incubation (containing no cells or drugs) were run in parallel. The blank value was subtracted from all control and sample values. For each sample, the value of p53 (in absorbance units) was expressed as the percentage of the value for p53 present in the control. […]

For series [1], the system named is A2780 ovarian cancer cells. The series is described as follows: Alamar Blue cell proliferation assay, A2780. The conditions noted are these: 4-day incubation; for IC50: Homo sapiens, A2780, 96 h, read-out: A2780 cell proliferation inhibition pIC50 (converted). In kind it is cell-based, human. As to the method:
The human A2780 ovarian cancer cells were a kind gift from Dr. T. C. Hamilton (Fox Chase Cancer Centre, Pennsylvania, U.S.A.). The cells were cultured in RPMI 1640 medium supplemented with 2 mM L-Glutamine, 50 μg/ml gentamicin and 10% fetal calf serum.
Potassium Phosphate Buffer 0.1 M (PPB) was made as follows: 2.72 gram KH2PO4 and 13.86 gram K2HPO4 were dissolved in 500 ml milli-Q H2O, the pH was adjusted to pH 7.4 and the volume was brought to 1 liter with milli-Q H2O; the buffer was filter sterilised and stored at room temperature. Resazurin stock solution (PPB-A) was prepared fresh by dissolving 45 mg resazurin in 15 ml PBS. 30 mM potassium ferricyanide (PPB-B) was prepared by dissolving 0.987 gram potassium ferricyanide in 100 ml PPB. 30 mM potassium ferrocyanide (PPB-C) was prepared by dissolving 1.266 gram potassium ferrocyanide in 100 ml PPB.
Mixture of PPB-A, PPB-B and PPB-C was prepared by mixing equal volumes of the respective solutions. Resazurin work solution (herein termed “Alamar Blue” solution) was prepared by diluting said mixture 20×(vol/vol) in PPB and filter sterilising; the Alamar Blue solution could be kept at 4° C. for a maximum of 2 weeks.
(§1) For experiments in 384 wells plates the cells were seeded at a density of 5×10^3 cells/ml in Falcon 384-well culture plates (Life Technologies, Merelbeke, Belgium), black with clear bottom, in 45 μl culture medium. Cells were allowed to adhere to plastic for 24 hr. The tested compound was pre-diluted (1/50 in culture medium) and 5 μl pre-diluted compound was added to the wells. Following 4-day incubation, 10 μl of the Alamar Blue solution was added to each well and the cells were further incubated for 5 hrs (A2780) at 37° C. The fluorescence intensity was measured for each well with a Fluorescence plate reader (Fluorskan, Labsystems, 540 nm excitation and 590 nm emission)
(§2) The antiproliferative activity was calculated as percentage of remaining viable cells in treated versus control (untreated cells) conditions. Within an experiment, the result for each experimental condition is the mean of 3 replicate wells. When appropriate, the experiments were repeated to establish full concentration-response curves. When appropriate, IC50-values (concentration of the drug, needed to reduce cell growth to 50% of the control) were computed using probit analysis for graded data (Finney, D. J., Probit Analyses, 2nd Ed. Chapter 10, Graded Responses, Cambridge University Press, Cambridge 1962). Herein the effects of test compounds are expressed as pIC50 (the negative log value of the IC50-value (M)) (see Table 5A).
In general terms: Resazurin is reduced to fluorescent resorufin, in cell work by metabolically active cells.

For series [2], the system named is colorectal cancer cell line HCT116. The series is described as follows: Alamar Blue cell proliferation assay, HCT116. The conditions noted are these: for IC50: Homo sapiens, HCT-116, HCT116 cells, read-out: HCT116 cell proliferation inhibition pIC50 (converted). Format: cell-based. As to the method: as §1, §2
(§3) Compounds were also tested according to the above protocol but using other cell lines: colorectal cancer cell line HCT116, non-small cell lung cancer cell line H1299, human prostate cancer cell line DU145.

The subject of series [3] is non-small cell lung cancer cell line H1299. The series is described as follows: Alamar Blue cell proliferation assay, H1299. In kind it is cell-based. As to the method: as §1, §2, §3
Series [4] deals with human prostate cancer cell line DU145. The series is described as follows: Alamar Blue cell proliferation assay, DU145. Format: cell-based. The conditions noted are these: Homo sapiens, DU-145, DU145 cells; read-out: DU145 cell proliferation inhibition pIC50 (converted). The procedure:
as §1, §2, §3

A further series deals with Male NMRI mice. The series is described as follows: Ro-4-1284 antagonism in mice. Format: in vivo. The conditions noted are these: Ro-4-1284 antagonism test in mice. As to the method:
The test is a modification of a procedure described by Colpaert et al. (1975).^3 Male NMRI mice (22±3 g) were housed in macrolon observation cages (L×W×H: 11×12×17 cm; n=3 per cage). At the start of the experiments immediately before test compound administration, the initial body temperature of the mice was measured with a precision of 0.1° C. by inserting the thermo-sensitive probe (1.0 mm diameter) of an electric thermometer (Comark) to a constant depth of 3 cm into the esophagus until a stable reading was obtained. The right eye pupil diameter was measured with a graduated microscope and expressed in 1/24 mm units. Fifteen min after test compound administration, the mice were challenged with Ro-4-1284 (10 mg/kg, s.c.). Ro-4-1284 is a reserpine-like vesicular monoamine transport (VMAT-2) inhibitor, which rapidly depletes secretory vesicles.^3,4 Fifteen, 30 and 60 min after challenge, the mice were scored for palpebral opening (0, 1, 2, 3, 4, 5) and locomotor activity (−1, 0, 1, 2, 3). At the 60-min interval, immediately after the scoring of overt behavior, the right eye pupil diameter and the esophageal temperature were measured again. Abnormal phenomena such as intensive sniffing, chewing, rearing, hyperemia, piloerection, salivation, tremors, convulsions and death were noted (the latter phenomena were also noted when occurring before Ro-4-1284 administration). Criteria for drug-induced effects: reversal of ptosis: palpebral opening score >1 at 15, 30 or 60 min (2.7, 0.5 and 0% false positive controls, respectively; n>350); induction of prostration: score −1 for locomotion at 15, 30 or 60 min (never observed in controls); reversal of hypomotility: score >0 for locomotion at 15, 30 and 60 min (2.2, 0.8 and 0% false positive controls, respectively); reversal of miosis: pupil diameter >5 units at 60 min (0.8% false positives); potentiation of hypothermia: temperature decrease (over the 1-h time interval)>9.0° C. (1.4% false positives); reversal of hypothermia: temperature decrease <3.0° C. (1.8% false positives).
According to the standard procedure, R0-4-1284 is injected 15 min following subcutaneous or oral administration and observations start 15 min later. Doses are initially given to 3 animals. When at least 2 out of the 3 animals show activity for at least one of the observations, the compound is considered active.

The structures appear in SMILES notation.

Turning to `C=Cc1ccc2c(CCNc3ccc(Nc4ccnc5c4CCC5O)cc3C)c[nH]c2c1` (centres unmarked) [Compound 14], the minimal effective concentration with p53 in A2780 cells came out at 1 µM. The IC50 in series [1] was 372 nM; in series [2], above 10000 nM; in series [3] (Homo sapiens, NCI-H1299, H1299 cells, read-out: H1299 cell proliferation inhibition pIC50 (converted)) it was 3980 nM; in series [4], 7240 nM.
Consider `COC1CCc2c(Nc3ccc(NCCc4c[nH]c5c(C(C)(C)O)cccc45)cc3)ccnc21` (centres unmarked) [Compound 8], for which the minimal effective concentration in the series on p53 in A2780 cells turned out to be 0.1 µM. Also, the IC50 in series [1] and in series [2] was 87.1 nM throughout.
As for `Cc1cc(Nc2ccnc3c2CCC3O)ccc1NCCc1c[nH]c2c(CCO)cccc12` (single isomer, unassigned) [Compound 13], the “p53-elisa LAD (lowest dose giving at least 140% of the value for p53 present in the control)” value in the series with p53 in A2780 cells was 1.00 µM. In series [1], the “A2780 cell proliferation inhibition pIC50” value is reported as 6.90. Besides, the “HCT116 cell proliferation inhibition pIC50” value in series [2] (HCT116 cells) is listed as 5.61. In addition, the “H1299 cell proliferation inhibition pIC50” value in series [3] (H1299 cells) was below 5.
Turning to `Cc1cc(Nc2ccncc2)ccc1NCCc1c[nH]c2ccccc12` [reference compound], the “drug induced neurological side effects” value in the series with Male NMRI mice is reported as “yes”.
`OC1CCc2c(Nc3ccc(NCCc4c[nH]c5ccccc45)cc3)ccnc21` (centres unmarked) [drawing 153, reference compound]: the “drug induced neurological side effects” value with Male NMRI mice was “yes”.
Same read-out and setting: the entry for `c1ccc2c(CCNc3ccc(Nc4ccncc4)cc3)c[nH]c2c1` [reference compound] is “yes”; for `OC1CCc2c(Nc3ccc(NCCc4c[nH]c5ccccc45)cc3)ccnc21` (centres unmarked) [drawing 152, reference compound] it is “yes”.
With `Cc1cccc2c(CCNc3ccc(Nc4ccncc4)cc3)c[nH]c12` [reference compound], the “drug induced neurological side effects” value in the series with Male NMRI mice was “yes”.
